Measurements reported in PubChem BioAssay (NCI).
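Five compound concentrations were applied to cells in 96-well plates for 48 hours; endpoints were derived by simple linear interpolation of the resulting dose-response curve. GI50 is the concentration that inhibits growth by half. TGI is the concentration that stops growth completely.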

Assays:
Assay in all cases: NCI tumour cell line growth inhibition, 48 h
MDA-MB-435 = test system: MDA-MB-435
MCF7 breast = test system: MCF7 breast
SR leukemia = test system: SR leukemia
U251 CNS = test system: U251 CNS
SF-295 CNS = test system: SF-295 CNS
SW-620 colon = test system: SW-620 colon
EKVX NSCLC = test system: EKVX NSCLC
T-47D breast = test system: T-47D breast
HT29 colon = test system: HT29 colon
NCI-H522 lung = test system: NCI-H522 lung

SMILES	TGI (MDA-MB-435) [µM]	TGI (MCF7 breast) [µM]	TGI (SR leukemia) [µM]	TGI (U251 CNS) [µM]	TGI (SF-295 CNS) [µM]	TGI (SW-620 colon) [µM]	TGI (EKVX NSCLC) [µM]	TGI (T-47D breast) [µM]	TGI (HT29 colon) [µM]	TGI (NCI-H522 lung) [µM]	GI50 (MCF7 breast) [µM]	GI50 (SR leukemia) [µM]	GI50 (U251 CNS) [µM]	GI50 (SF-295 CNS) [µM]	GI50 (SW-620 colon) [µM]	GI50 (NCI-H522 lung) [µM]	GI50 (EKVX NSCLC) [µM]	GI50 (T-47D breast) [µM]	GI50 (HT29 colon) [µM]
COc1ccc(-c2ccc(C(=O)C=P(c3ccccc3)(c3ccccc3)c3ccccc3)cc2)cc1	30	30.2	73.6	31.9	40.3	37.8	38.6	62.3	19.4	–	–	–	–	–	–	–	–	–	–
O=[N+]([O-])c1ccc(-n2nc3ccc4nonc4c3n2)cc1	> 100	> 100	> 100	> 100	87.9	> 100	> 100	> 100	> 100	> 100	–	–	–	–	–	–	–	–	–
C=C(NC(=O)C(=C)NC(=O)c1ccc2c(n1)-c1coc(n1)C(=C)NC(=O)C(=C)NC(=O)c1nc(oc1C)C(=C)NC(=O)C(C(C)(C)O)NC(=O)C(=C)NC(=O)c1coc(n1)/C(=C/C)NC(=O)[C@H]([C@@H](C)O)NC(=O)c1csc-2n1)C(N)=O (stereo partly drawn)	> 87.5	> 87.5	> 87.5	> 87.5	> 87.5	> 87.5	> 87.5	–	> 8.75	> 87.5	–	–	–	–	–	–	–	–	–
C=CCC(O[Si](C)(C)C(C)(C)C)c1cc(O[Si](C)(C)C(C)(C)C)ccc1OC (stereo not drawn)	–	> 100	–	> 100	> 100	> 100	> 100	–	> 100	–	–	–	–	–	–	–	–	–	–
O=P1(N(CCCl)CCCl)Oc2ccc(Cl)cc2C(C(Cl)(Cl)Cl)c2cc(Cl)ccc2O1 (stereo not drawn)	71.8	73.9	30.6	29.2	23.7	> 100	> 100	> 100	18.9	42.9	–	–	–	–	–	–	–	–	–
COC1/C=C/C(C)C(O)CC(O)/C=C/C(C)C(C(C)C(OC)C(C)CCC(=O)C(C)C(C/C=C/N(C)C=O)OC)OC(=O)/C=C/C=C(\C)CC(OC)CC2=CC(=O)O[C@@H](C(C)C(OC)C1)[C@H]2O (stereo partly drawn)	0.906	0.0909	24.6	0.102	< 0.005	0.267	0.266	1.28	0.741	0.093	–	–	–	–	–	–	–	–	–
O=c1[nH]c(=O)n(COC(CO)CO)cc1-c1ccccc1	> 100	> 100	> 100	> 100	> 100	> 100	> 100	> 100	> 100	> 100	–	–	–	–	–	–	–	–	–
COC(=O)[C@]1(c2cc3ccccc3n2S(=O)(=O)c2ccccc2)CC2CN(C(=O)OCc3ccccc3)C1C1OC(C)(C)OC21 (stereo partly drawn)	> 100	> 100	–	> 100	> 100	> 100	> 100	–	> 100	> 100	–	–	–	–	–	–	–	–	–
CCC1(O)CC(CCN(Cc2ccccc2)C(=O)OCc2ccccc2)C(OCc2ccccc2)C1O (stereo not drawn)	38.2	28.8	34.9	> 100	28.2	> 100	30.9	30.6	31	23.5	–	–	–	–	–	–	–	–	–
Nc1[nH]c(=O)nc2c1ncn2C1OC(CO)C(O)C1O (stereo not drawn)	> 100	> 100	–	> 100	> 100	> 100	> 100	70.3	> 100	> 100	–	–	–	–	–	–	–	–	–
CCCCCC[C@H]([C@H](C)O)n1cnc2c(N)ncnc21	> 100	> 100	> 100	> 100	> 100	> 100	> 100	> 100	> 100	–	–	–	–	–	–	–	–	–	–
CCN1CC2(C)CCC(OC)C34C5CC6CCC(O)(C5C(=O)O6)C(C(O)C23)C14 (stereo not drawn)	> 100	> 100	–	> 100	> 100	> 100	> 100	> 100	> 100	> 100	–	–	–	–	–	–	–	–	–
CC1=NN(C(=O)CC(=O)Nc2cccc(C)c2)C(=O)C1N=Nc1ccc(S(=O)(=O)CCOS(=O)(=O)O)cc1 (stereo not drawn)	–	13.4	> 100	13.6	11.3	14.5	> 64.6	> 49.5	11.5	0.835	–	–	–	–	–	–	–	–	–
CC(O)c1nc(C#N)c(N)o1 (stereo not drawn)	–	> 100	–	> 100	> 100	> 100	> 100	> 100	> 100	> 100	–	–	–	–	–	–	–	–	–
CC1=C(CO)C(=O)OC(C(C)C2CCC3C4CC5OC56C(O)C(N5CC5)=CC(=O)C6(C)C4CCC23C)C1 (stereo not drawn)	–	–	10.5	15.1	33.7	6.4	25.6	–	13.7	3.36	–	–	–	–	–	–	–	–	–
C[s+]1c2ccccc2c2ccccc21	–	–	> 100	> 100	> 100	> 100	> 100	–	> 100	> 100	–	–	–	–	–	–	–	–	–
O=C1c2cc3c(cc2-c2c1c1cc(F)c(F)cc1c(=O)n2CCCn1ccnc1)OCO3	–	1.39	16.6	10.2	0.0133	> 100	> 100	0.0577	> 100	0.432	< 0.01	< 0.01	< 0.01	< 0.01	< 0.01	0.0124	0.687	< 0.01	0.0189
CCOc1ccc2nc(NC(=O)C(=O)C(C(=O)c3ccccc3F)C3OC(=O)c4ccccc43)sc2c1 (stereo not drawn)	–	–	55.6	23.8	–	37.5	45.3	–	–	27.8	–	–	–	–	–	–	–	–	–
O=C(CNc1ccccc1C(=O)O)Nn1cnc2ccc(S(=O)(=O)Nc3ccccc3C(=O)O)cc2c1=O	> 100	> 100	> 100	> 100	> 100	> 100	> 100	–	> 100	> 100	–	–	–	–	–	–	–	–	–
O=C(O)c1c(CC(Cc2ccc3c(c2)CCC3)C(=O)O)ccc2c1CCC2 (stereo not drawn)	> 100	> 100	> 100	> 100	> 100	> 100	> 100	–	> 100	> 100	–	–	–	–	–	–	–	–	–
C[C@H]1S[C@@H](c2ccc(Cl)cc2Cl)N(NC(=O)c2ccncc2)C1=O	> 100	> 100	> 100	> 100	–	–	–	> 100	> 100	> 100	–	–	–	–	–	–	–	–	–
CCOP(=O)(/C=C/n1cc(C)c(=O)[nH]c1=O)OCC	> 100	> 100	–	> 100	> 100	> 100	> 100	> 100	> 100	> 100	–	–	–	–	–	–	–	–	–

SMILES	TGI (MDA-MB-435) [µM]	TGI (MCF7 breast) [µM]	TGI (SR leukemia) [µM]	TGI (U251 CNS) [µM]	TGI (SF-295 CNS) [µM]	TGI (SW-620 colon) [µM]	TGI (EKVX NSCLC) [µM]	TGI (T-47D breast) [µM]	TGI (HT29 colon) [µM]	TGI (NCI-H522 lung) [µM]	GI50 (MCF7 breast) [µM]	GI50 (SR leukemia) [µM]	GI50 (U251 CNS) [µM]	GI50 (SF-295 CNS) [µM]	GI50 (SW-620 colon) [µM]	GI50 (NCI-H522 lung) [µM]	GI50 (EKVX NSCLC) [µM]	GI50 (T-47D breast) [µM]	GI50 (HT29 colon) [µM]
CC(C)(C)C(=O)Nc1c(C=O)ccc2[nH]cnc12	> 100	> 100	–	> 100	> 100	> 100	> 100	> 100	–	> 100	–	–	–	–	–	–	–	–	–
O=C1Nc2ccccc2/C1=C\c1c(Cl)n(-c2ccccc2)c2ccccc12	–	88	> 100	18.2	15.6	> 100	7.7	56.7	6.46	–	–	–	–	–	–	–	–	–	–
COc1nc(Cl)nc(N[C@H](C)c2c3ccccc3cc3ccccc23)n1	15.1	29.2	–	31.9	31	28.8	29.6	9.08	31.3	21.3	–	–	–	–	–	–	–	–	–
Cc1cn(CCCCCCOC(=O)NC(CCCNC(N)=O)C(=O)O)c(=O)[nH]c1=O (stereo not drawn)	> 100	> 100	> 100	> 100	> 100	> 100	> 100	> 100	> 100	–	–	–	–	–	–	–	–	–	–
CC1OC(OC2C(O[C@H]3CC[C@@]4(C)C(=CC[C@H]5[C@@H]6C[C@@H]7O[C@]8(CC[C@@H](C)CO8)[C@@H](C)[C@@H]7[C@@]6(C)CC[C@@H]54)C3)OC(CO)C(O)C2OC2OC(CO)C(O)C(O)C2O)C(O)C(O)C1O (stereo partly drawn)	3.73	4.55	> 100	–	4.41	4.39	> 21.9	4.65	> 100	3.42	–	–	–	–	–	–	–	–	–
Cc1nc(NC(C)(CO)CO)nc(N/N=C/c2ccc(Cl)cc2)c1C(=O)Nc1ccc(Cl)cc1	> 100	> 100	–	> 100	> 100	> 100	> 100	> 100	> 100	> 100	–	–	–	–	–	–	–	–	–
CC(C)CCCC(C)[C@H]1CCC(C2C[C@@H](O)[C@@H]3CC(O)[C@@H](O)C[C@]3(CO)C2=O)[C@]1(C)CCO (stereo partly drawn)	–	20.4	–	37.7	40	52.7	> 94.9	–	36.3	73.8	–	–	–	–	–	–	–	–	–
C=C(C)C1CC(=O)C(C)=C(O)C1 (stereo not drawn)	–	> 100	> 100	> 100	> 100	> 100	> 100	> 100	> 100	> 100	–	–	–	–	–	–	–	–	–
CN(CCCCCl)P(=O)(OCc1ccc([N+](=O)[O-])o1)OCC1OC(n2ccc(N)nc2=O)C(O)C1O (stereo not drawn)	8.21	17	43.9	11.1	57.7	69.6	–	7.71	41.4	24.3	–	–	–	–	–	–	–	–	–
N#Cc1c(-c2ccc([N+](=O)[O-])cc2)c(C#N)c(=O)n(NS(=O)(=O)c2ccccc2)c1S	81.9	> 100	–	> 100	> 100	45.7	> 100	–	> 100	42.4	–	–	–	–	–	–	–	–	–
FC1=C2C3CCC(C3)C2C1(F)F (stereo not drawn)	> 100	> 100	–	> 100	> 100	> 100	> 100	> 100	> 100	> 100	–	–	–	–	–	–	–	–	–
COC(=O)c1sc(=O)sc1SCc1cccc(CSc2sc(=O)sc2C(=O)OC)c1	> 100	> 100	–	34.3	> 100	> 100	> 100	> 100	> 100	> 100	–	–	–	–	–	–	–	–	–
CC1=C(C)C(=O)C(C2=CC(=O)c3ccccc3C2=O)=C(C2=CC(=O)c3ccccc3C2=O)C1=O	1.19	–	–	> 45.3	> 55.2	> 33.9	> 72	45.1	28.7	17.4	–	–	–	–	–	–	–	–	–
COc1cc2c(/C=C3/C(=O)Nc4ccccc43)c(Cl)n(Cc3ccc(Cl)cc3)c2cc1C	0.428	31.8	0.43	1.23	3.06	17.5	44.9	24.2	–	2.06	–	–	–	–	–	–	–	–	–
COP(=O)(OC)OCN(C)CC/C=C(\C)CC/C=C(\C)CCC=C(C)C	40.2	28.5	–	37.6	32.5	30.4	63.3	43.9	–	26.1	–	–	–	–	–	–	–	–	–
COC(=O)C1=C(CCCCO[Si](C)(C)C(C)(C)C)NC(=O)N2[C@H](CCOCc3ccccc3)CC[C@@H]12	> 100	> 100	–	> 100	> 100	–	> 100	> 100	–	> 100	–	–	–	–	–	–	–	–	–
ClC1=NN=C(c2c[nH]c3ccccc23)CC1NCc1ccccc1 (stereo not drawn)	> 100	–	–	> 100	> 100	> 100	> 100	> 100	> 100	> 100	–	–	–	–	–	–	–	–	–
CC(Nc1ccc(Cl)cc1)c1ccncc1 (stereo not drawn)	> 100	> 100	–	> 100	> 100	> 100	> 100	> 100	> 100	> 100	–	–	–	–	–	–	–	–	–
COc1cc2c[n+]3c4c(c2c(OC)c1OC)CCCC4CC3 (stereo not drawn)	> 100	–	–	> 100	> 100	> 100	> 100	> 100	> 100	> 100	–	–	–	–	–	–	–	–	–
Cn1c(=O)c2c(nc3[nH]c(=O)c(Br)cn32)n(C)c1=O	> 100	–	> 100	> 100	> 100	> 100	> 100	> 100	> 100	> 100	–	–	–	–	–	–	–	–	–
N#Cc1ccccc1NC(=O)C(=O)C(C(=O)c1ccccc1F)C1OC(=O)c2ccccc21 (stereo not drawn)	–	–	57	40.8	> 100	> 100	> 100	–	> 100	75.1	–	–	–	–	–	–	–	–	–
